Test results: ChEMBL document CHEMBL1201862, “PubChem BioAssay data set” (2004)
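These data come from cells grown in 96-well plates and exposed to compound for 48 hours at five concentrations. GI50 = concentration required for 50% inhibition of growth.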 Activity calls are given as the source filed them. Cut-off read from the data, not from the text of the source: active = GI50 up to about 1.1 µM and inactive = higher.

Experiments:
Assay in all cases: NCI-60 cell line screen, 48 h
CCRF-CEM = system: CCRF-CEM
OVCAR-3 = system: OVCAR-3
UACC-62 = system: UACC-62
RXF 393 = system: RXF 393
SNB-75 = system: SNB-75
KM12 = system: KM12
MCF7 = system: MCF7
M14 = system: M14
HCC 2998 = system: HCC 2998
HT-29 = system: HT-29
HCT-15 = system: HCT-15
SK-MEL-2 = system: SK-MEL-2
SF-539 = system: SF-539
NCI-H226 = system: NCI-H226
HL-60 = system: HL-60
COLO 205 = system: COLO 205
MDA-MB-435 = system: MDA-MB-435
A549 = system: A549
NCI-H522 = system: NCI-H522
LOX IMVI = system: LOX IMVI

SMILES | GI50 (CCRF-CEM) | GI50 (OVCAR-3) | GI50 (UACC-62) | GI50 (RXF 393) | GI50 (SNB-75) | GI50 (KM12) | GI50 (MCF7) | GI50 (M14) | GI50 (HCC 2998) | GI50 (HT-29) | GI50 (HCT-15) | GI50 (SK-MEL-2) | GI50 (SF-539) | GI50 (NCI-H226) | GI50 (HL-60) | GI50 (COLO 205) | GI50 (MDA-MB-435) | GI50 (A549) | GI50 (NCI-H522) | GI50 (LOX IMVI)
O=C(Cc1ccccc1)NN1C(=O)/C(=C\c2ccc(O)cc2)S/C1=N\c1ccccc1 | > 100 µM (inactive) | > 100 µM (inactive) | > 100 µM (inactive) | > 100 µM (inactive) | 50.7 µM (inactive) | > 100 µM (inactive) | 84.1 µM (inactive) | > 100 µM (inactive) | > 100 µM (inactive) | > 100 µM (inactive) | > 100 µM | > 100 µM (inactive) | > 100 µM (inactive) | > 100 µM (inactive) | > 100 µM (inactive) | > 100 µM (inactive) | > 100 µM (inactive) | > 100 µM (inactive) |  | 
C=CCOCC1C2CCC3(OCCO3)C21 (centres undefined) | 99.5 µM (inactive) | > 100 µM (inactive) | 30.1 µM (inactive) | > 100 µM (inactive) | > 100 µM (inactive) | > 100 µM (inactive) | > 100 µM (inactive) | > 100 µM (inactive) | > 100 µM (inactive) | > 100 µM (inactive) | > 100 µM | > 100 µM (inactive) | > 100 µM (inactive) | > 100 µM (inactive) |  | > 100 µM (inactive) | > 100 µM (inactive) | > 100 µM (inactive) | > 100 µM (inactive) | > 100 µM (inactive)
COc1cccc(C2SC(=N)Nc3c2c(C)nn3C(=O)Cc2ccccc2)c1 (centres undefined) | > 100 µM (inactive) |  | > 100 µM (inactive) |  | 51.5 µM (inactive) | > 100 µM (inactive) | 39.8 µM (inactive) | > 100 µM (inactive) | > 100 µM (inactive) | > 100 µM (inactive) | > 100 µM |  | > 100 µM (inactive) | > 100 µM (inactive) | > 100 µM (inactive) | > 100 µM (inactive) | > 100 µM (inactive) | > 100 µM (inactive) | > 100 µM (inactive) | > 100 µM (inactive)
Cc1[nH]nc(-c2ccon2)c1N=O |  | 18.4 µM (inactive) | 17.9 µM (inactive) | 34.3 µM (inactive) | 32.2 µM (inactive) | 21 µM (inactive) | 22.9 µM (inactive) | 20.8 µM (inactive) |  | 18.2 µM (inactive) | 18.2 µM | 34.3 µM (inactive) | 17.9 µM (inactive) | 14.6 µM (inactive) | 12.1 µM (inactive) | 19.9 µM (inactive) | 20.5 µM (inactive) | 23.7 µM (inactive) | 20 µM (inactive) | 
COc1ccc(/C=N/n2cnc3[nH]c(C)c(Cc4ccccc4)c3c2=N)cc1 | 54.3 µM (inactive) | > 100 µM (inactive) | > 100 µM (inactive) | 19.2 µM (inactive) | 71.9 µM (inactive) | > 100 µM (inactive) | 39.1 µM (inactive) | > 100 µM (inactive) | > 100 µM (inactive) | > 100 µM (inactive) | > 100 µM | > 100 µM (inactive) |  | > 100 µM (inactive) | > 100 µM (inactive) | 75.9 µM (inactive) | > 100 µM (inactive) | 89.5 µM (inactive) | 65 µM (inactive) | 
COc1cc(C2c3cc(OC)c(OC)c(O)c3C(=O)C3CCC(=O)N32)cc(OC)c1OC (centres undefined) |  | 34.1 µM (inactive) | 64 µM (inactive) |  | 63.7 µM (inactive) | 48.2 µM (inactive) | > 100 µM (inactive) | > 100 µM (inactive) | > 100 µM (inactive) | 70 µM (inactive) | > 100 µM | > 100 µM (inactive) | > 100 µM (inactive) | 10.9 µM (inactive) | 26.4 µM (inactive) | 24.8 µM (inactive) | 16.2 µM (inactive) | > 100 µM (inactive) | 26 µM (inactive) | 40.8 µM (inactive)
CC1(C)C[C@H]2C=C(C=O)[C@]34C[C@]3(C(=O)OC4O)[C@H]2C1 (some centres undefined) | 0.813 µM (active) | 2.84 µM (inactive) | 1.97 µM (inactive) |  | 1.91 µM (inactive) | 1.94 µM (inactive) | 1.38 µM (inactive) | 1.44 µM (inactive) | 2.95 µM (inactive) | 1.87 µM (inactive) | 1.43 µM | 1.72 µM (inactive) | 1.68 µM (inactive) | 6.61 µM (inactive) | 1.92 µM (inactive) | 0.374 µM (active) | 2.35 µM (inactive) | 2.83 µM (inactive) | 0.443 µM (active) | 1.24 µM (inactive)
Cc1ccc(S(=O)(=O)NCCSCCNS(=O)(=O)c2ccc(C)cc2)cc1 | > 100 µM (inactive) | > 100 µM (inactive) |  | > 100 µM (inactive) | > 100 µM (inactive) | > 100 µM (inactive) | > 100 µM (inactive) | > 100 µM (inactive) | > 100 µM (inactive) | > 100 µM (inactive) | > 100 µM |  |  | > 100 µM (inactive) |  | > 100 µM (inactive) | > 100 µM (inactive) | > 100 µM (inactive) | > 100 µM (inactive) | > 100 µM (inactive)
N/C(S)=N/N=C/c1ccc(O)cn1 | 1.78 µM (inactive) | 3.52 µM (inactive) |  |  | 9.06 µM (inactive) | 11.1 µM (inactive) | 3.18 µM (inactive) | 5.11 µM (inactive) | 13.6 µM (inactive) | 22.3 µM (inactive) | 9.08 µM |  | 2.26 µM (inactive) | 24.2 µM (inactive) | 4.12 µM (inactive) |  | 10.5 µM (inactive) | 47.6 µM (inactive) |  | 5.13 µM (inactive)
CC(C)OP(=O)(OC(C)C)c1ccc2c(c1)OCCOCCOCCOCCO2 | > 100 µM (inactive) |  | > 100 µM (inactive) |  | > 100 µM (inactive) | > 100 µM (inactive) | > 100 µM (inactive) | > 100 µM (inactive) | > 100 µM (inactive) | > 100 µM (inactive) | > 100 µM |  | > 100 µM (inactive) | > 100 µM (inactive) | > 100 µM (inactive) | > 100 µM (inactive) | > 100 µM (inactive) | > 100 µM (inactive) | > 100 µM (inactive) | 95.7 µM (inactive)
O=Cc1cccc2ccc3ccccc3c12 |  | 12.9 µM (inactive) | 28.1 µM (inactive) | 16.3 µM (inactive) | 7.35 µM (inactive) | 4.02 µM (inactive) | 14.4 µM (inactive) | 20 µM (inactive) | 26.2 µM (inactive) | 12.2 µM (inactive) | 11.1 µM | 15.1 µM (inactive) | 5.86 µM (inactive) | 24.7 µM (inactive) |  | 18.7 µM (inactive) | 18.4 µM (inactive) | 24.3 µM (inactive) | 13.8 µM (inactive) | 11.3 µM (inactive)
CC(C)CCNC(=O)c1ccc(CNC(=O)/C=C/c2ccc(OCc3ccccc3)cc2)cc1 | > 100 µM (inactive) | > 100 µM (inactive) | > 100 µM (inactive) | > 100 µM (inactive) | > 100 µM (inactive) | > 100 µM (inactive) | > 100 µM (inactive) | > 100 µM (inactive) | > 100 µM (inactive) | > 100 µM (inactive) | > 100 µM | > 100 µM (inactive) |  | 39.9 µM (inactive) |  | > 100 µM (inactive) | > 100 µM (inactive) | > 100 µM (inactive) |  | > 100 µM (inactive)
